# Laboratory results taken from patent US8058243B2, “Method for treating a brain cancer with ifenprodil” (HSC Research and Development Limited Partnership, priority 2006, dated 2011).
# Counter-ions that a name gives are not always drawn. Like-named read-outs stand apart in the source and are kept apart here.
# System: murine neural precursor cells (neurosphere cultures)
# Assay: HTS of LOPAC library against secondary neurosphere cultures, MTT proliferation assay at 3 μM, day 7 (z score, P value)
# Format: cell-based, mouse
# [1] = LOPAC primary screen, neurosphere MTT proliferation, 3 μM, day 7
# [2] = yes = significantly inhibited neurosphere proliferation (P<0.01) in the primary screen
# [3] = primary LOPAC screen, 3 μM, MTT, neurosphere proliferation
# [4] = yes/no: significantly inhibited neurosphere proliferation in the primary screen
# [5] = LOPAC screen, neurosphere MTT proliferation, 3 μM, day 7
# [6] = yes/no: significantly inhibited neurosphere proliferation (P<0.01) in primary screen
# [7] = yes/no: significantly inhibited neurosphere proliferation (P<0.01) in the primary screen
# [8] = yes/no: significantly inhibited neurosphere proliferation in primary screen
# [9] = LOPAC library screen, 3 μM, MTT, secondary neurosphere cultures, day 7
# [10] = LOPAC library screen at 3 μM, secondary neurosphere cultures, MTT
Compound,Z Score,Z score [1],Activity [8],other results
CC(=O)O.CSC(=N)NCCC[C@H](N)C(=O)O [S-Methyl-L-thiocitrulline acetate],−1.751,−1.751,,Activity [2]: no
CSC(=N)N.CSC(=N)N.O=S(=O)(O)O [S-Methylisothiourea hemisulfate],−0.2111,,,Activity: no; Z score: −0.211
N[C@@H](CCC(=O)N[C@@H](CSN=O)C(=O)NCC(=O)O)C(=O)O [S-Nitrosoglutathione],,,,"Z Score (168 h, 3 µM): 0.6978; Z score (168 h, 3 µM): 0.698; Activity [2]: no"
Cl.Cn1ccc2cc(NC(=O)Nc3cccnc3)ccc21 [SB 200646 hydrochloride],2.437,,,Z score [3]: 2.437; Activity [4]: no
O=C(OCCN1CCCCC1)c1c[nH]c2ccccc12 [SB 203186],0.9365,,,Z score [5]: 0.937; Activity [6]: no
CCCCN1CCC(COC(=O)c2cc(Cl)c(N)c3c2OCCO3)CC1.Cl [SB 204070 hydrochloride],−5.886,−5.886,,Activity [7]: yes
Cc1cc(NC(=O)Nc2ccc3c(ccn3C)c2)sn1 [SB 204741],−2.299,,,Z score [5]: −2.299; Activity [6]: no
CC#CCOC(=O)c1c(C)nc2sc3c(c2c1N)CCC(O)C3 (stereo not drawn) [SB 205384],0.7968,0.797,no,
Cn1ccc2cc3c(cc21)CCN3C(=O)Nc1cccnc1 [SB 206553 hydrochloride],−1.365,,,Z score [3]: −1.365; Activity [4]: no
Cn1cc(C2=C(c3ccc(Cl)cc3Cl)C(=O)NC2=O)c2ccccc21 [SB 216763],−2.542,−2.542,,Activity [2]: yes
COC(=O)[C@H](NC(=O)c1cc(-c2ccccc2)nc2ccccc12)c1ccccc1 [SB 218795],1.359,1.359,,Activity [6]: no
CC[C@H](NC(=O)c1c(C)c(-c2ccccc2)nc2ccccc12)c1ccccc1 [SB 222200],−1.695,,,Z score [3]: −1.695; Activity [4]: no
Cc1nc(-c2ccc(-c3ccc(C(=O)N4CCc5cc6c(cc54)C4(CCN(C)CC4)CO6)cc3)c(C)c2)no1.Cl [SB 224289 hydrochloride],,−4.786,,Z Score [9]: −4.786; Activity [7]: yes
COc1cc2c(cc1C(F)(F)F)N(C(=O)Nc1cc(F)cc(-c3cccnc3)c1)CC2 [SB 228357],0.03426,0.034,,Activity [6]: no
CC1CCN(CC[C@H]2CCCN2S(=O)(=O)c2cccc(O)c2)CC1.Cl [SB 269970 hydrochloride],−1.1,−1.100,no,
O=C1NC(=O)C(c2ccccc2[N+](=O)[O-])=C1Nc1ccc(O)c(Cl)c1 [SB 415286],−2.87,−2.870,,
COc1cccc(NC(=O)/C=C/c2ccc(Cl)cc2)c1 [SB-366791],−1.419,−1.419,no,
CC(=O)NNC(=O)N1Cc2ccccc2Oc2ccc(Cl)cc21 [SC 19220],−1.64,−1.640,no,
COc1ccc(-n2nc(C(F)(F)F)cc2-c2ccc(Cl)cc2)cc1 [SC-560],1.113,1.113,,

Compound,Z Score,Z score [1],Activity [8],other results
Cc1nc2c(OCc3ccccc3)cccn2c1CC#N [SCH-28080],2.107,,,Z score [5]: 2.107; Activity [6]: no
Br.CN=c1nc(-c2ccccc2)n(-c2ccccc2)s1 [SCH-202676 hydrobromide],0.3599,0.360,no,
"CCN(CC)CCOC(=O)c1cc(Cl)c(N)cc1OC.Cl [SDZ-205,557 hydrochloride]",−2.681,−2.681,,Activity [7]: yes
Cc1ccc(O)c(N=Nc2ccccc2)n1 [SIB 1757],−1.752,−1.752,no,
Cc1cccc(/C=C/c2ccccc2)n1 [SIB 1893],−0.848,−0.848,no,
Br.CN1CCc2cc(O)c(O)cc2C(c2ccccc2)C1 (stereo not drawn) [SKF 75670 hydrobromide],−0.1421,−0.142,no,
Br.Cc1cccc(C2CN(C)CCc3c2cc(O)c(O)c3Cl)c1 (stereo not drawn) [SKF 83959 hydrobromide],−1.357,−1.357,no,
CN1CCc2cccc(Cl)c2CC1 [SKF 86466],0.8822,0.882,,Activity [2]: no
Br.Oc1ccc(C2CNCc3sccc32)cc1O (stereo not drawn) [SKF 89626],−0.04369,−0.044,,Activity: no
Cl.O=C(O)C1CCCN(CCC=C(c2ccccc2)c2ccccc2)C1 (stereo not drawn) [SKF 89976A hydrochloride],−0.2328,−0.233,no,
CN(C)CCCCSC(=N)N.Cl.Cl [SKF 91488 dihydrochloride],−0.766,−0.766,no,
CN/C(=N\c1ccc(C2=NNC(=O)CC2C)cc1)NC#N (stereo not drawn) [SKF 94836],0.2458,0.246,no,
O=C(O)/C=C\C(=O)O.O=C(O)/C=C\C(=O)O.c1cc(CN2CCCCC2)cc(OCCCNc2nc3ccccc3s2)c1 [SKF 95282 dimaleate],,,,Z score [3]: 0.424; Activity [4]: no
COc1ccc(CCCOC(Cn2ccnc2)c2ccc(OC)cc2)cc1 (stereo not drawn) [SKF 96365],−4.497,−4.497,,Activity [2]: yes
CP(=O)(O)CCCN.Cl [SKF 97541 hydrochloride],−0.7355,,,Z score [3]: −0.736; Activity [4]: no
CCCC(C(=O)OCCN(CC)CC)(c1ccccc1)c1ccccc1.Cl [SKF-525A hydrochloride],−1.928,−1.928,,Activity [7]: no
O=C(O)/C=C\C(=O)O.O=C(O)/C=C\C(=O)O.c1cc(CN2CCCCC2)cc(OCCCNc2nc3ccccc3s2)c1 [SKY 95282 dimaleate],0.4241,,,
C=CCN1C[C@H](C)N([C@H](c2ccc(C(=O)N(CC)CC)cc2)c2cccc(OC)c2)C[C@H]1C [SNC80],−0.4575,−0.457,no,
Oc1c2ccccc2c2c3c(cccc13)N=N2 [SP600125],,,,Z Score [9]: −1.986; Z score [5]: −1.986

Compound,Z Score,Z score [1],Activity [8],other results
Nc1ncnc2c1ncn2C1CCCO1 (stereo not drawn) [SQ 22536],0.5616,,,Z score [3]: 0.562; Activity [4]: no
O=C(O)c1ccccc1Nc1cccc(OCc2ccc3ccccc3n2)c1 [SR 2640],−1.548,−1.548,no,
Cl.NC1CCN(c2cccc(Cl)n2)CC1 [SR 57227A],−1.4,−1.400,no,
CCc1ccccc1OC[C@@H](O)CN[C@H]1CCCc2ccccc21.O=C(O)C(=O)O [SR 59230A oxalate],,−1.222,no,Z Score [9]: −1.222
Br.COc1ccc(-c2ccc(=N)n(CCCC(=O)O)n2)cc1 [SR-95531],−0.9574,,,Activity: no; Z score: −0.957
CN(C)c1ccc(/C=C2\C(=O)Nc3ccccc32)cc1 [SU 4312],0.2692,0.269,no,
Cc1cc(C)c(/C=C2\C(=O)Nc3ccccc32)[nH]1 [SU 5416],−0.6622,−0.662,no,
CN(C)S(=O)(=O)c1ccc2c(c1)/C(=C/c1cc3c([nH]1)CCCC3)C(=O)N2 [SU 6656],0.3165,0.316,no,
CC(C)(C)NCC(O)c1ccc(O)c(CO)c1 (stereo not drawn) [Salbutamol],,−1.678,no,Z Score [9]: −1.678
OCc1cc(C(O)CNCCCCCCOCCCCc2ccccc2)ccc1O (stereo not drawn) [Salmeterol],,−0.490,,Activity: no; Z Score [10]: −0.4896
CCCCCCCCCC[Si](C)(C)CCC(=O)NC(Cc1ccc(C)cc1)c1ccccc1 (stereo not drawn) [Sandoz 58-035],,,,"Z Score (LOPAC library screen, 3 μM, MTT, neurosphere cultures): 0.3325; Z score [3]: 0.332; Activity [4]: no"
C[n+]1cc2c3c(ccc2c2ccc4cc5c(cc4c21)OCO5)OCO3 [Sanguinarine chloride],−10.01,−10.008,,Activity [7]: yes
C[Se]C[C@H](N)C(=O)O.Cl [Se-(methyl)selenocysteine hydrochloride],0.4116,0.412,,Activity [2]: no
CC(C)[C@@H]1NC(=O)[C@H](CCCCN)NC(=O)[C@@H](Cc2c[nH]c3ccccc23)NC(=O)[C@H](Cc2ccc(O)cc2)NC(=O)[C@H](C)N(C)C(=O)[C@H](Cc2ccccc2)NC1=O [Seglitide],,−0.662,no,Z Score [10]: −0.662
NNC(N)=O [Semicarbazide hydrochloride],−1.405,−1.405,no,
C[C@H](O)C(=O)C1=Nc2c(nc(N)[nH]c2=O)NC1 [Sepiapterin],,,,"Z Score (168 h, 3 µM): 1.795; Z score (168 h, 3 µM): 1.795; Activity [4]: no"
NCCc1c[nH]c2ccc(O)cc12 [Serotonin hydrochloride],,,,"Z Score (168 h, 3 µM): −2.197; Z score (168 h, 3 µM): −2.197; Activity [6]: no"
CC(C)COC(=O)OCN1C(=O)CN(CCN2CC(=O)N(COC(=O)OCC(C)C)C(=O)C2)CC1=O [Sobuzoxane],,−9.600,,Z Score [9]: −9.6; Activity [2]: yes
